# ChEMBL document CHEMBL1125025, “11 beta-methoxy-, 11 beta-ethyl- and 17 alpha-ethynyl-substituted 16 alpha-fluoroestradiols: receptor-based imaging agents with enhanced uptake efficiency and selectivity” (J Med Chem, 1990)
# Assays:
# [1] = biological target: T1, Alpha-fetoprotein (Rattus norvegicus) (UniProt P02773); assay: Binding affinity against Alphafetoprotein (AFP), in rodents.; design: reference not given here
# T1 sequence (whole entry): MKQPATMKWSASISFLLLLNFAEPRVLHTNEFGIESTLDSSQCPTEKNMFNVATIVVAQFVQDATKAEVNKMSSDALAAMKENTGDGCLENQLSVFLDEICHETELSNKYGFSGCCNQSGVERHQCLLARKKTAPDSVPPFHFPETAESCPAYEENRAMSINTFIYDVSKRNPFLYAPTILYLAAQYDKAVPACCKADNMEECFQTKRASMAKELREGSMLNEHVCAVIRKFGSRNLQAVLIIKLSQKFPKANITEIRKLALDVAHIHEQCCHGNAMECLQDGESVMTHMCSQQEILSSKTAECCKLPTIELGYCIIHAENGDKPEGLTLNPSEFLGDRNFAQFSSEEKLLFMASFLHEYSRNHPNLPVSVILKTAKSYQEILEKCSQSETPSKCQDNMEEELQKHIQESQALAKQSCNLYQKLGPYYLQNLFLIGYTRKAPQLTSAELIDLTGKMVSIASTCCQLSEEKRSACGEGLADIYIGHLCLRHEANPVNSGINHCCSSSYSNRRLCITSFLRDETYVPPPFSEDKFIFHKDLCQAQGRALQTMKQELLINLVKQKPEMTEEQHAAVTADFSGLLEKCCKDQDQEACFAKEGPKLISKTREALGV
# [2] = biological target: T2, Sex hormone-binding globulin (Homo sapiens) (UniProt P04278); assay: Binding affinity against Sex steroid binding protein(SBP) of human serum; design: reference not given here
# T2 sequence (whole entry): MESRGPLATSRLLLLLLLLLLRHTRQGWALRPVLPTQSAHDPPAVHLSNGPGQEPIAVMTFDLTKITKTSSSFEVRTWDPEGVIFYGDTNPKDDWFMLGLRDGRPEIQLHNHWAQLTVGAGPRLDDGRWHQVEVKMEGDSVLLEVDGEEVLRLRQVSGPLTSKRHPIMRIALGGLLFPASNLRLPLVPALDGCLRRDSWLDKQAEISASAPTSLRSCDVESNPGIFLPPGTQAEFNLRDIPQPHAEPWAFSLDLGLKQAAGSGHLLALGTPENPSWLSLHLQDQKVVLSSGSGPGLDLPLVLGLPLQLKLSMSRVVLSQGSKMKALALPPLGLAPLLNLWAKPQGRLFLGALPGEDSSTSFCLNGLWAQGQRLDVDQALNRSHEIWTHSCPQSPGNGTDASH
relative binding affinity (RBA) [1],relative binding affinity (RBA) [2],SMILES
100,100,C[C@]12CC[C@@H]3c4ccc(O)cc4CC[C@H]3[C@@H]1CC[C@@H]2O
3.51,1.81,C#C[C@]1(O)CC[C@H]2[C@@H]3CCc4cc(O)ccc4[C@H]3CC[C@@]21C
0.94,0.43,C#C[C@]1(O)[C@H](F)C[C@H]2[C@@H]3CCc4cc(O)ccc4[C@H]3CC[C@@]21C

# Further lines, the molecule ahead of its results:
SMILES,relative binding affinity (RBA) [1],relative binding affinity (RBA) [2]
CC[C@H]1C[C@]2(C)[C@@H](O)[C@H](F)C[C@H]2[C@@H]2CCc3cc(O)ccc3[C@@H]12,1.47,2.24
C[C@]12CC[C@@H]3c4ccc(O)cc4CC[C@H]3[C@@H]1C[C@@H](F)[C@@H]2O,101,9.5
CO[C@H]1C[C@]2(C)[C@@H](O)[C@H](F)C[C@H]2[C@@H]2CCc3cc(O)ccc3[C@H]21,0.51,0.53
CC[C@H]1C[C@]2(C)[C@@H](O)CC[C@H]2[C@@H]2CCc3cc(O)ccc3[C@@H]12,1.21,40.8
CO[C@H]1C[C@]2(C)[C@@H](O)CC[C@H]2[C@@H]2CCc3cc(O)ccc3[C@H]21,0.26,1.72
